# Legend:
# Assay type in all cases: cell-based, human
# A549 = assay: MTT cell viability assay, A549; conditions: Homo sapiens, A549, 48 h, mean ± SE
# Protocol: (§1) HeLa, A549, HepG2, HL-60, and WI-38 cell lines were incubated in DMEM solution containing 10% FBS for 48 h. The incubated tumor cells were seeded into 96-well plates (5 × 10^3 cells/well) to make them attach for 12 h. Afterwards, the cells were processed with the various concentrations of the synthetic compounds and 5-FU for 48 h. After removing the cell culture supernatant, 10 µl MTT (5 mg/ml) solution was dripped into the cells to generate a formazan product, which were dissolved by dimethyl sulfoxide (DMSO) 4 h later. Multifunction microplate reader (Bio-Rad Laboratories, Shanghai, China) was adopted to measure the absorbance at the wave length of 490 nm. The IC50 (the lowest drug concentration causing 50% of the tumor cells inhibition) was then calculated using GraphPad Prism Software (version 5.02) and used to indicate the cytotoxic effect of the target compounds on the selected tumor cells.
# Hela = assay: MTT cell viability assay, Hela; conditions: Homo sapiens, HeLa, 48 h, mean ± SE
# Protocol: as §1
# HepG2 = assay: MTT cell viability assay, HepG2; conditions: Homo sapiens, HepG2, 48 h, mean ± SE
# Protocol: as §1
# HL-60 = assay: MTT cell viability assay, HL-60; conditions: Homo sapiens, HL-60, 48 h, mean ± SE
# Protocol: as §1
# WI-38 = assay: MTT cell viability assay, normal cell line WI-38; conditions: Homo sapiens, WI-38, 48 h, normal cells, mean ± SE
# Protocol: as §1
# HepG2 cells = assay: Annexin V-Alexa Fluor 647/PI staining, flow cytometry; conditions: 48 h
# Protocol: HepG2 cells were seeded into six-well plates (3 × 10^5/well) overnight to allow the cells to grow adherently and then incubated with a14 at the concentrations of 0, 30, 40, 50, 60 or 70 µM for 48 h. In order to assess apoptosis, the double Annexin V-Alexa Fluor 647/PI (Beijing Solarbio Science & Technology Co., Ltd) immunofluorescence labeling method was used. After the cells were collected by centrifugation, 5 µl of Annexin V-Alexa Fluor 647 and 10 µl of PI solution (20 ug/ml) were added to each well. The cells were mixed and incubated at room temperature for 15 min in the dark and then mixed with 400 µl of PBS. Then, a Beckman Coulter flow cytometer (Beckman Coulter, Inc. California) was used to monitor the fluorescence. Ten thousand events were collected for each sample, and the data were analyzed via Flow Jo-V10 software.
# ROS level in HepG2 cells = assay: ROS level by DCFH-DA probe, flow cytometry; conditions: a14 50 µM, 8 h (0 h: 4351.6)
# Protocol: HepG2 cells were seeded into six-well plates (3 × 10^5 cells/well) overnight to make the cells grow adherently and then incubated with a14 (50 µM) for 0, 3, 6, 8, 9, and 12 h. After that, the cells were added to 1 ml DCFH-DA (10 µM) and incubated for 30 min in the dark. After the cells were washed twice by the pre-cooled PBS, the cells were trypsinized and collected by centrifugation. The cells of the blank group were implemented the same experimental procedures, except for the process with a14. Besides, 5 mM N-acetyl-L-cysteine (NAC) was applied as anti-oxidative substance to prevent the oxidation of the cells, which could entirely block the production of ROS induced by a14. The generation levels of ROS were evaluated in fluorescence intensity (FL-1, 530 nm) by Beckman Coulter flow cytometer (Beckman Coulter, Inc. California). The data collected was analyzed using the CytExpert 2.0 software embedded in Beckman flow cytometry, and the histogram was plotted by Origin Pro8.
# [1] = system: mitochondrial membrane potential in HepG2 cells; assay: Mitochondrial membrane potential by JC-1 probe; conditions: a14 50 µM
# Protocol: JC-1 probe was used to detect changes in MMP. Firstly, HepG2 cells (3 × 10^5 cells/well) were seeded into a six-well plate overnight for adherence, and then treated with various concentrations of a14 for 48 h. Next, the cells were treated with JC-1 (2.5 µg/ml) at 37°C for 10 min in the dark and rinsed three times with PBS. Then, the six-well plate was placed under the fluorescence microscope (excitation 480/30× nm, emission 515 nm) to observe the fluorescence color and intensity of JC-1 in the cells. In addition, HepG2 cells (3 × 10^5 cells/well) were inoculated on another six-well plate overnight to allow adherence, and then treated with a14 (50 µM) for 0, 12, 24, 36, and 48 h, adding CCCP (without a14) for 20 min to completely lose the mitochondrial membrane potential. Cells were then incubated with JC-1 (2.5 µg/ml) at 37°C in the dark for 10 min and rinsed with PBS for three times. Fluorescence intensity of residual JC-1 in cells was measured by Beckman Coulter flow cytometer (FITC, 525/40BP). The data obtained was analyzed by CytExpert 2.0 software imbedded in the flow cytometry.
# Bax in HepG2 cells = assay: Western blot, Bax; conditions: different concentrations, 48 h, dose-dependent; in words
# Protocol: HepG2 cells (3 × 10^5 cells/well) were seeded into a six-well plate overnight for adherence, and then treated with a14 (0, 30, 40, 50, 60, and 70 µM) for 48 h. After the cells were collected by centrifugation, they were lysed with the radio immunoprecipitation assay (RIPA) buffer (high) containing 50 mM Tris (pH = 7.4), 150 mM NaCl, 1% TritonX-100, 1% sodium deoxycholate, 0.1% sodium dodecyl sulfate (SDS), 2 mM sodium pyrophosphate, 25 mM β-glycerophosphate, 1 mM ethylenediaminetetraacetic acid (EDTA), 1 mM Na3VO4, and 0.5 ug/ml leupeptin (Beijing Solarbio Science & Technology Co., Ltd.).The extract was then centrifuged at 12,000 rpm for 30 min and the total protein concentration was quantified using the BCA kit (Beijing Solarbio Science & Technology Co., Ltd.). The protein extracts were mixed with the SDS-PAGE protein loading buffer (Beijing Solarbio Science & Technology Co., Ltd.) and then boiled in 100°C water bath for 10 min. The gel was gelatinized using an SDS Gel Kit (Beijing Solarbio Science & Technology Co., Ltd.) and protein extracts were separated by protein SDS-polyacrylamide gel electrophoresis and transferred to Immobilon-NC Membrane (Beijing Solarbio Science & Technology Co., Ltd.). […]
smiles,measurement,setting,value
COc1cc(/C=C/C(=O)c2ccc(O)c(C(N)=O)c2)cc(OC)c1OC [a14],IC50,A549,36.7 ± 1.08 µM
same,IC50,Hela,23.3 ± 2.35 µM
same,IC50,HepG2,38.3 ± 0.59 µM
same,IC50,HL-60,121 ± 3.58 µM
same,IC50,WI-38,121.3 ± 0.87 µM
same,Early apoptosis,HepG2 cells; a14 30 µM,3.10%
same,Late apoptosis,HepG2 cells; a14 30 µM,9.45%
same,increase of percentage of early apoptosis compared with the untreated group,HepG2 cells; a14 50 µM,28.35%
same,increase of percentage of late apoptosis compared with the untreated group,HepG2 cells; a14 50 µM,13.51%
same,Early apoptosis,HepG2 cells; a14 70 µM,28.62%
same,Late apoptosis,HepG2 cells; a14 70 µM,32.89%
same,intracellular fluorescence intensity (DCFH-DA),ROS level in HepG2 cells,236197.3
same,"JC-1 (FITC), right of the gate line (green fluorescence)",[1]; 48 h (untreated 50.08%),91.94%
same,JC-1 fluorescence colour under the fluorescence microscope,"[1]; 48 h, in words",almost all cells had shown green fluorescence
same,expression of pro-apoptotic proteins (Bax),Bax in HepG2 cells,up-regulated
